For one experiment, the target named is T1, USP8 Rhod domain (Homo sapiens, UniProt P40818).
T1 construct: USP8 Rhod (174–317) (UniProt: P40818); GST (cleaved yes); made in house; host or cells: Escherichia coli BL21-Gold (DE3)
T1 sequence (P40818 174-317): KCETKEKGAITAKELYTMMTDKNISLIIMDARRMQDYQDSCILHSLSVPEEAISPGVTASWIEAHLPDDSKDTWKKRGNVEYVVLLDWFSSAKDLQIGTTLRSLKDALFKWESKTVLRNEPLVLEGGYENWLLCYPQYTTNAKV
The experiment can be described thus: Peptide-phage display-based deep mutational scanning (DMS), USP8 Rhod domain. Format: binding. To be noted: ProP-PD DMS, bait USP8_Rhodanese__P40818_174_317; pair wild-type GMERVLGGLSSPLRLL (wt_00013) vs mutant; positive where wild-type fraction is higher, negative where mutant fraction is higher.
The sequence GMERVLGGWSSPLRLL had a hit_pair_ratio of 10.09.

With GMERVLGGYSSPLRLL, the hit_pair_ratio was 32.92.

Staying with this experiment, now noted: ProP-PD pairs, bait USP8_Rhodanese__P40818_174_317; wild-type/mutant pair, wild type KIAA1614 569-584 GMERVLGGLSSPLRLL (wt_00013).
Sequence GMERVLGGTSSPLRLL registered a hit_pair_ratio of -7.40.

On to GMERVLGGVSSPLRLL, for which the hit_pair_ratio is given as -2.88.

Take GMERVLGNLSSPLRLL: the hit_pair_ratio was found to be 160.99.

For GMERVLGTLSSPLRLL, the hit_pair_ratio came out at 321.97.

As to GMERVLGVLSSPLRLL, the hit_pair_ratio is reported as 14.78.

GMERVLHGLSSPLRLL yielded a hit_pair_ratio of 6.31.

Sequence GMERVLIGLSSPLRLL returned a hit_pair_ratio of 3.89.

On to GMERVLKGLSSPLRLL, for which the hit_pair_ratio is 131.67.

Turning to GMERVLLGLSSPLRLL, the hit_pair_ratio stood at 3.42.

In the case of GMERVLMGLSSPLRLL, the hit_pair_ratio is on record as -3.47.

As to GMERVLNGLSSPLRLL, the hit_pair_ratio was -1.21.

Consider GMERVLPGLSSPLRLL, for which the hit_pair_ratio is listed as 131.67.

As for GMERVLQGLSSPLRLL, the hit_pair_ratio was -3.38.

Turning to GMERVLRGLSSPLRLL, the hit_pair_ratio turned out to be 18.46.

The sequence GMERVLSGLSSPLRLL registered a hit_pair_ratio of 2.55.

GMERVLTGLSSPLRLL gave a hit_pair_ratio of -43.42.

The sequence GMERVLVGLSSPLRLL showed a hit_pair_ratio of -3.34.

GMERVLWGLSSPLRLL gave a hit_pair_ratio of 321.97.

For GMERVLYGLSSPLRLL, the hit_pair_ratio was 2.20.

The sequence GMERVNGGLSSPLRLL gave a hit_pair_ratio of 321.97.

With GMERVPGGLSSPLRLL, the hit_pair_ratio is 12.38.

For GMERVQGGLSSPLRLL, the hit_pair_ratio is 107.32.

Take GMERVSGGLSSPLRLL: the hit_pair_ratio is 321.97.

In turn, GMERVTGGLSSPLRLL displayed a hit_pair_ratio of 40.25.

With GMERVVGGLSSPLRLL, the hit_pair_ratio was 321.97.

GMERWLGGLSSPLRLL displayed a hit_pair_ratio of -5.43.

The sequence GMERYLGGLSSPLRLL came in with a hit_pair_ratio of -2.09.

In turn, GMETVLGGLSSPLRLL showed a hit_pair_ratio of 321.97.

Consider GMEWVLGGLSSPLRLL, for which the hit_pair_ratio is reported as 40.25.

Consider GMFRVLGGLSSPLRLL, for which the hit_pair_ratio is 321.97.

In turn, GMHRVLGGLSSPLRLL returned a hit_pair_ratio of 16.95.

The sequence GMLRVLGGLSSPLRLL gave a hit_pair_ratio of 32.20.

GMNRVLGGLSSPLRLL came in with a hit_pair_ratio of 2.27.

GMPRVLGGLSSPLRLL yielded a hit_pair_ratio of 21.46.

Regarding GMQRVLGGLSSPLRLL, the hit_pair_ratio turned out to be 1.88.

As to GMSRVLGGLSSPLRLL, the hit_pair_ratio is 9.14.

With GMTRVLGGLSSPLRLL, the hit_pair_ratio is listed as 23.00.

For the sequence GMVRVLGGLSSPLRLL, the hit_pair_ratio was 160.99.

Take GMWRVLGGLSSPLRLL: the hit_pair_ratio is listed as 15.33.

In turn, GMYRVLGGLSSPLRLL gave a hit_pair_ratio of 17.24.

In turn, GNERVLGGLSSPLRLL came in with a hit_pair_ratio of -3.41.

Take GPERVLGGLSSPLRLL: the hit_pair_ratio is reported as -9.75.

Sequence GQERVLGGLSSPLRLL had a hit_pair_ratio of -1.16.

Sequence GRERVLGGLSSPLRLL gave a hit_pair_ratio of 1.40.

The sequence GSERVLGGLSSPLRLL returned a hit_pair_ratio of -3.84.

Regarding GTERVLGGLSSPLRLL, the hit_pair_ratio was -5.86.

The sequence GVERVLGGLSSPLRLL came in with a hit_pair_ratio of -8.18.

As to GWERVLGGLSSPLRLL, the hit_pair_ratio is 3.37.

On to GYERVLGGLSSPLRLL, for which the hit_pair_ratio stood at 1.08.

The same experiment, now with this note: wild type/mutant pair; bait USP8_Rhodanese__P40818_174_317; vs hit_library_peptide_wt GLALWEAKMKQLAERA; negative where mutant fraction exceeds wild type; ProP-PD pairs (sheet S7.B).
GPALWEAKMKQLAERA: the hit_pair_ratio is recorded as 1107.01.

In the case of GRALWEAKMKQLAERA, the hit_pair_ratio was 1107.01.

Sequence GSALWEAKMKQLAERA showed a hit_pair_ratio of 417.62.

Sequence GTALWEAKMKQLAERA showed a hit_pair_ratio of 1107.01.

Take GVALWEAKMKQLAERA: the hit_pair_ratio is -1.59.

Take GWALWEAKMKQLAERA: the hit_pair_ratio was 11.95.

In the case of GYALWEAKMKQLAERA, the hit_pair_ratio is 276.75.

For the origin of these results see PMC12057046, “Elucidation of short linear motif-based interactions of the MIT and rhodanese domains of the ubiquitin-specific protease 8” (Biology Direct, 2025).
